# Data published in publication PMC5116089, “Sulfheme formation during homocysteine S-oxygenation by catalase in cancers and neurodegenerative diseases” (Nature Communications, 2016).
# Where two headings read alike, the source gives them in different places.
# Biological target: T1, Bovine liver catalase (Bos taurus, UniProt P00432)
# T1 construct: Bovine liver catalase was also purchased from Sigma-Aldrich; purchased Sigma-Aldrich; host or cells: bovine liver
# T1 sequence (P00432 2-527 limits assumed): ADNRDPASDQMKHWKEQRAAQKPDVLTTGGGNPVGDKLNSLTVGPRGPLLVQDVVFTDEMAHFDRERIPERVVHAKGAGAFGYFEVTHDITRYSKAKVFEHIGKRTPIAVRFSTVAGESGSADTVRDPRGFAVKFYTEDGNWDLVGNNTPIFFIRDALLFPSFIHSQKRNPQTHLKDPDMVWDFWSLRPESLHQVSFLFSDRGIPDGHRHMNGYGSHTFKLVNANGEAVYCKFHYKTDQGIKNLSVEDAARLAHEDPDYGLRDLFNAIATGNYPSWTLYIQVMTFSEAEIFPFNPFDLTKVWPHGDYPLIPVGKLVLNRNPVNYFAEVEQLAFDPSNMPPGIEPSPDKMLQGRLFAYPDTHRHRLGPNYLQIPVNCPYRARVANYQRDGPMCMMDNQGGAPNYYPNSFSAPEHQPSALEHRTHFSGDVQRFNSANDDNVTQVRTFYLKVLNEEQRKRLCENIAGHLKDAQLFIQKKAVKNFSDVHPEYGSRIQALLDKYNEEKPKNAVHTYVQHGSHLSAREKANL
# Experiment: Catalase activity (H2O2 disappearance at 240 nm) as a function of thiol concentration
# Format: biochemical
# Details: read-out: relative IC50 (CAT activity)
# Procedure: CAT activity was measured on an Uvikon 941 spectrophotometer equipped with a temperature controlled water bath (±1 °C) by following the disappearance of H2O2 at 240 nm over 30–120 s at 25 °C. Catalase activity was calculated based on the rate of decomposition of hydrogen peroxide, which is proportional to the reduction of the absorbance at 240 nm. Experiments were carried out in a 3 ml quartz cuvette containing 11.7 mM H2O2 in 50 mM KPi, pH 7.4±1 mM DTPA and the reaction was initiated by adding 0.3–0.6 pmoles of CAT. The effect of biological thiols on the activity of CAT under physiological conditions was determined from a solution of CAT (30–60 nM) preincubated at 25 °C for at least 120 min as a function thiol concentration (0–40 mM for HCys and Cys, 0–100 mM for GSH) in 50 mM KPi, pH 7.4, 1 mM DTPA. Control experiments (biological thiols alone) were also performed in parallel. In each case, 10 μl of the reaction mixture (biological thiols±CAT) was added to the cuvette containing the H2O2 solution to initiate the reaction. Similarly, the effect of biological thiols on the activity of CAT under pathological conditions was determined from a solution of CAT (30–60 nM) containing a 2.124±0.386 molar excess of iron that was preincubated with various concentrations of thiols (0–1 mM) for at least 120 min at 25 °C in 50 mM KP at pH 7.4. The relative half inhibitory concentration (IC50) values were obtained by plotting the relative activity of CAT (A, in per cent) as a function of the concentration of thiol-compounds (RSH) and by fitting the data with the following four parameter logistic equation: A=Amin+(Amax−Amin)/(1+([RSH]/IC50)^n), where Amax is the maximal activity of CAT (constrained at 100%), Amin is the minimum activity achieved at saturating concentration of RSH and n is the Hillslope that characterizes the slope of the curve at its midpoint. The inactivation rate (kinact, min^−1) was extracted from the time course of the inactivation of CAT bioactivity using a fixed concentration of HCys. Accordingly, a solution of CAT (3.5–5 μM) was incubated with 2 mM L-HCys in 50 mM KPi, pH 7.4, 1 mM DTPA. Aliquots (10 μl) were taken at intervals (0–480 min), diluted 1:50 in 50 mM KPi, pH 7.4, 1 mM DTPA and assayed for CAT activity as described above. Similar experiments were performed in the presence of DMPO, 5,5-dimethyl-1,3-cyclohexanedione (dimedone) or SOD at a final concentration of 100 mM, 4 mM or 40 U, respectively. kinact values were obtained by plotting the relative activity of CAT (A, in per cent) as a function of the incubation time and the data were fitted with an exponential decay function: A=A0+ΔA × e^−kinact × t, with A0 and ΔA (A0+ΔA=100%) the residual activity and the percentage of CAT inhibition when t→∞, respectively. The effect of NaSH on the consumption of H2O2 in cell lysates was determined from a solution of cell lysates (0.5–3 mg ml^−1) incubated on ice with various concentrations of NaSH (0–200 μM). The disappearance of H2O2 was then followed at 240 nm for 2–5 min at 25 °C after the addition of 20–25 μl of the reaction mixture in a 3 ml cuvette containing 11.7 mM H2O2 in 50 mM KPi, pH 7.4. The relative half inhibitory concentration (IC50) values for NaSH were obtained by plotting the relative rate of disappearance of H2O2 (ΔA240 nm/min) as a function of the concentration of NaSH and by fitting the data with an hyperbolic decay equation. All the experiments were performed at least in triplicate.
# [1] = +1 mM DTPA (physiological conditions), 50 mM phosphate buffer pH 7.4, 25 °C, n=3±s.d.
# [2] = iron 55–145 nM, −DTPA (pathological conditions), 50 mM phosphate buffer pH 7.4, 25 °C, n=3±s.d.
IC50 [1] [µM],"IC50 (iron 55–145 nM, + 0.2 mM DTPA) [µM]","IC50 (iron 55–145 nM, + 1 mM DTPA) [µM]","IC50 (iron 55–145 nM, + DMPO) [µM]","IC50 (iron 55–145 nM, + SOD) [µM]",IC50 [2] [µM],SMILES
590 ± 70,69 ± 27,594 ± 67,> 700,66 ± 16,3.5 ± 0.3,"N[C@@H](CS)C(=O)O [Cys, cysteine]"
21200 ± 8500,–,–,–,–,55 ± 14,"N[C@@H](CCC(=O)N[C@@H](CS)C(=O)NCC(=O)O)C(=O)O [GSH, glutathione]"
1440 ± 370,–,–,–,–,37 ± 3,"NC(CCS)C(=O)O (stereo not shown) [HCys, homocysteine]"
